Tests used:
[1] = test system: Penicillium decumbens; experiment: Inhibition of Penicillium decumbens alpha-L-rhamnosidase at 1000 uM
[2] = target: T1, Tissue alpha-L-fucosidase (Bos taurus, UniProt Q2KIM0); experiment: Inhibition of bovine kidney alpha-L-fucosidase
T1 sequence (Q2KIM0 whole entry): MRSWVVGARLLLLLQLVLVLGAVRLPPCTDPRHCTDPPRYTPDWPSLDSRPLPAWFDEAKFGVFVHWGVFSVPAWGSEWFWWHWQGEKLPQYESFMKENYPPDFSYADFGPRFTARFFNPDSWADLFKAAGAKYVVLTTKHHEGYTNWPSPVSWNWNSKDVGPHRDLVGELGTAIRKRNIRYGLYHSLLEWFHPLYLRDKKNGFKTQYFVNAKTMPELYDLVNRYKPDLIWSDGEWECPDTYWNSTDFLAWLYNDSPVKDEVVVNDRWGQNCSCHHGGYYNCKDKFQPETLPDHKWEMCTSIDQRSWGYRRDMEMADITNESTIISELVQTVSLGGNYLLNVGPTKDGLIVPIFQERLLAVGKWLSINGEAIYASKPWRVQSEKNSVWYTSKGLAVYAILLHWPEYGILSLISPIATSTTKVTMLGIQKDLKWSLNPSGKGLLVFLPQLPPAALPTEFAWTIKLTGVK

[3] = target: T2, Glucosylceramidase (Bos taurus) (UniProt Q2KHZ8); experiment: Inhibition of bovine liver beta-glucosidase at 1000 uM
T2 sequence (whole entry): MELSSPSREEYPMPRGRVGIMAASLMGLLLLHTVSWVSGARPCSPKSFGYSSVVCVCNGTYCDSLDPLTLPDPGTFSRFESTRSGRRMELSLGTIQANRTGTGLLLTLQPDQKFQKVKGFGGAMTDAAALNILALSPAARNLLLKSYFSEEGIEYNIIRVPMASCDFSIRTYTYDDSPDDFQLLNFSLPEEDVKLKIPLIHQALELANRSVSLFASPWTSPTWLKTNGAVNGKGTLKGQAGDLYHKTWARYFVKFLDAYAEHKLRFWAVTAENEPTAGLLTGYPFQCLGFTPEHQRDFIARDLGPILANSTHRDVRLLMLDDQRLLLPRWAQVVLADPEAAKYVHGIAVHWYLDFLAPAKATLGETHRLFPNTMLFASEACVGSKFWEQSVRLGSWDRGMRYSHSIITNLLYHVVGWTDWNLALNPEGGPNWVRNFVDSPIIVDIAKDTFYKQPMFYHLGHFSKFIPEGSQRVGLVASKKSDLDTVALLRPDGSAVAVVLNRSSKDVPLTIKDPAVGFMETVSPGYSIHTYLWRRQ

[4] = target: T3, Beta-galactosidase (Bos taurus) (UniProt Q58D55); experiment: Inhibition of bovine liver beta-galactosidase at 1000 uM
T3 sequence (whole entry): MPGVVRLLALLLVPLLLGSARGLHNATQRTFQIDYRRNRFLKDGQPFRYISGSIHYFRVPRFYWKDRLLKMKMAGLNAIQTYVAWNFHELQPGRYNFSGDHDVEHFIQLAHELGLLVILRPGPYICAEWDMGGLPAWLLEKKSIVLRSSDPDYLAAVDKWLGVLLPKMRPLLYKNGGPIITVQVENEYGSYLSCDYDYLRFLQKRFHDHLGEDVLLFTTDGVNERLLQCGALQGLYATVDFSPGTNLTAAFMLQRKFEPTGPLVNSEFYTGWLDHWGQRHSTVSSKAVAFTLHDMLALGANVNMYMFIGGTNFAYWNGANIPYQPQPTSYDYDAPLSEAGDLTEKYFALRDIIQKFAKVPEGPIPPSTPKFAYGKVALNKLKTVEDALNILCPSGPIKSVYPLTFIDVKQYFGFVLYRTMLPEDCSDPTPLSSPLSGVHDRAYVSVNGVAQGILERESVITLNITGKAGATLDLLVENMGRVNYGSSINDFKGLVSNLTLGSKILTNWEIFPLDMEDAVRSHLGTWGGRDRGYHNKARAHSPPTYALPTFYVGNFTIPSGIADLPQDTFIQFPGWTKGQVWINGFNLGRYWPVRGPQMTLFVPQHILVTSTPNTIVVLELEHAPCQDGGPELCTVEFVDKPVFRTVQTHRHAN

[5] = test system: Escherichia coli; experiment: Inhibition of Escherichia coli beta-glucuronidase at 1000 uM
[6] = target: T4, Tissue alpha-L-fucosidase (Bos taurus) (UniProt Q2KIM0); experiment: Inhibition of bovine kidney alpha-L-fucosidase at 1000 uM
T4 sequence (whole entry): T1 sequence (Q2KIM0 whole entry)

[7] = Inhibition of Penicillium decumbens alpha-L-rhamnosidase
[8] = target: T5, Beta-galactosidase (Bos taurus, UniProt Q58D55); experiment: Inhibition of bovine liver beta-galactosidase
T5 sequence (Q58D55 whole entry): T3 sequence (whole entry)

[9] = Inhibition of Escherichia coli beta-glucuronidase

CC[C@H]1N[C@@H](CO)[C@@H](O)[C@H](O)[C@H]1O
inhibition [1]: 2.4%
IC50 [2]: 208 µM
inhibition [3]: 32.8%
inhibition [4]: 20.3%
inhibition [5]: 11%

CC[C@H]1NC[C@@H](O)[C@@H](O)[C@H](O)[C@H]1O
inhibition [1]: 5.3%
inhibition [3]: 24.6%
inhibition [4]: 12.1%
inhibition [5]: 3.1%
inhibition [6]: 36.7%

CC[C@@H]1N[C@H](CC)[C@H](O)[C@@H](O)[C@@H]1O
inhibition [1]: 0%
inhibition [3]: 21.6%
inhibition [4]: 9.7%
inhibition [5]: 12.9%
inhibition [6]: 0%

CC[C@@H]1NC[C@@H](O)[C@@H](O)[C@H](O)[C@H]1O
inhibition [5]: 18.1%
IC50 [7]: 231 µM
IC50 [8]: 526 µM
inhibition [6]: 37.2%

CCC[C@@H]1N[C@@H](CO)[C@@H](O)[C@H](O)[C@H]1O
inhibition [1]: 13%
IC50 [2]: 713 µM
inhibition [3]: 13.2%
inhibition [4]: 26.8%
IC50 [9]: 586 µM

CC[C@@H]1N[C@@H](CO)[C@@H](O)[C@H](O)[C@H]1O
inhibition [1]: 37.7%
IC50 [2]: 72 µM
inhibition [3]: 12.6%
inhibition [4]: 6.5%
inhibition [5]: 7.2%

Reference: ChEMBL document CHEMBL2406948, “Skeletal rearrangement of seven-membered iminosugars: synthesis of (-)-adenophorine, (-)-1-epi-adenophorine and derivatives and evaluation as glycosidase inhibitors” (Bioorg Med Chem, 2013)
